Experimental data reported in patent US20070010671A1, “Novel quinazoline derivatives and methods of treatment related to the use thereof” (priority 2003, published 2007).

biological target: MCH receptor (Homo sapiens, UniProt Q99705); assay: High throughput functional screening FLIPR/FDSS6000: inhibition of MCH-evoked intracellular Ca2+ changes; format: cell-based; settings: class by percent of control at 10^-7 M or IC50
Outline: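 Cells expressing constitutively active MCH receptor, loaded with 4 μM Fluo4-AM for 1 h at 37 °C, were pretreated 3 min with compound, then challenged with MCH (50 nM for antagonist testing). MCH-evoked [Ca2+]i transients followed by FLIPR or FDSS (ex 488/em 530 nm) over 290 s.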

SMILES	class
CCNC(=O)NC[C@H]1CC[C@@H](Nc2nc(N(C)C)c3ccccc3n2)CC1 [compound 433]	3 (Class 3: The value of percent of control at 10^−7 M was more than 60% or the value of IC50 was more than 200 nM.)
Cc1cccc(NC(=O)NC[C@H]2CC[C@@H](Nc3nc(N(C)C)c4ccccc4n3)CC2)c1 [compound 459, N-[(cis-4-{[4-(dimethylamino)quinazolin-2-yl]amino}cyclohexyl)methyl]-N′-(3-methylphenyl)urea]	2 (Class 2: The value of percent of control at 10^−7 M was from 40% to 60% or the value of IC50 was from 50 nM to 200 nM.)
CN(C)c1nc(N[C@H]2CC[C@@H](NC(=O)Nc3ccc(C(C)(C)C)cc3)CC2)nc2ccccc12 [compound 345]	3 (Class 3: The value of percent of control at 10^−7 M was more than 60% or the value of IC50 was more than 200 nM.)
CN(C)c1nc(N[C@H]2CC[C@@H](CNC(=S)Nc3ccc(SC(F)(F)F)cc3)CC2)nc2ccccc12 [compound 656]	3 (Class 3: The value of percent of control at 10^−7 M was more than 60% or the value of IC50 was more than 200 nM.)
CN(C)c1nc(N[C@H]2CC[C@@H](CNC(=O)Nc3c(F)cc(Br)cc3Br)CC2)nc2ccccc12 [compound 476, N-(2,4-dibromo-6-fluorophenyl)-N′-[(cis-4-{[4-(dimethylamino)quinazolin-2-yl]amino}cyclohexyl)methyl]urea]	1 (Class 1: The value of percent of control at 10^−7 M was less than 40% or the value of IC50 was less than 50 nM.)
Cc1cc([N+](=O)[O-])ccc1NC(=S)NC[C@H]1CC[C@@H](Nc2nc(N(C)C)c3ccccc3n2)CC1 [compound 726]	3 (Class 3: The value of percent of control at 10^−7 M was more than 60% or the value of IC50 was more than 200 nM.)
Cc1cccc(Cl)c1NC(=O)NC[C@H]1CC[C@@H](Nc2nc(N(C)C)c3ccccc3n2)CC1 [compound 489]	1 (Class 1: The value of percent of control at 10^−7 M was less than 40% or the value of IC50 was less than 50 nM.)
CCN(CC)CCCNC(=S)N[C@H]1CC[C@@H](Nc2nc(N(C)C)c3ccccc3n2)CC1 [compound 387]	3 (Class 3: The value of percent of control at 10^−7 M was more than 60% or the value of IC50 was more than 200 nM.)
COc1ccc(CNC(=S)NC[C@H]2CC[C@@H](Nc3nc(N(C)C)c4ccccc4n3)CC2)cc1 [compound 701]	3 (Class 3: The value of percent of control at 10^−7 M was more than 60% or the value of IC50 was more than 200 nM.)
CN(C)c1nc(N[C@H]2CC[C@@H](NC(=S)NC(c3ccccc3)c3ccccc3)CC2)nc2ccccc12 [compound 284, N-(cis-4-{[4-(dimethylamino)quinazolin-2-yl]amino}cyclohexyl)-N′-(diphenylmethyl)thiourea]	2 (Class 2: The value of percent of control at 10^−7 M was from 40% to 60% or the value of IC50 was from 50 nM to 200 nM.)
CC(C)c1cccc(C(C)C)c1NC(=S)NC[C@H]1CC[C@@H](Nc2nc(N(C)C)c3ccccc3n2)CC1 [compound 675]	2 (Class 2: The value of percent of control at 10^−7 M was from 40% to 60% or the value of IC50 was from 50 nM to 200 nM.)
CN(C)c1nc(N[C@H]2CC[C@@H](NC(=S)Nc3ccc(Br)c(Cl)c3)CC2)nc2ccccc12 [compound 311]	3 (Class 3: The value of percent of control at 10^−7 M was more than 60% or the value of IC50 was more than 200 nM.)
CN(C)c1nc(N[C@H]2CC[C@@H](CNC(=O)Nc3ccc(I)cc3)CC2)nc2ccccc12 [compound 555, N-[(cis-4-{[4-(dimethylamino)quinazolin-2-yl]amino}cyclohexyl)methyl]-N′-(4-iodophenyl)urea]	2 (Class 2: The value of percent of control at 10^−7 M was from 40% to 60% or the value of IC50 was from 50 nM to 200 nM.)

same assay, conditions: class by percent of control at 10^-7 M or by IC50; read-out: class

IC50 [nM]	SMILES
> 200	CN(C)c1nc(N[C@H]2CC[C@@H](NC(=O)Nc3ccc(Br)cc3Cl)CC2)nc2ccccc12 [compound 143]
> 200	Cc1ccc(NC(=O)N[C@H]2CC[C@@H](Nc3nc(N(C)C)c4ccccc4n3)CC2)cc1[N+](=O)[O-] [compound 829]
> 200	CN(C)c1nc(N[C@H]2CC[C@@H](NC(=O)Nc3ccc(C(F)(F)F)cc3)CC2)nc2ccccc12 [compound 136]
50 to 200	CN(C)c1nc(N[C@H]2CC[C@@H](NC(=O)Nc3ccccc3Oc3ccccc3)CC2)nc2ccccc12 [compound 115, N-(cis-4-{[4-(dimethylamino)quinazolin-2-yl]amino}cyclohexyl)-N′-(2-phenoxyphenyl)urea]
50 to 200	CN(C)c1nc(N[C@H]2CC[C@@H](NC(=O)NCc3cccc(F)c3)CC2)nc2ccccc12 [compound 134, N-(cis-4-{[4-(dimethylamino)quinazolin-2-yl]amino}cyclohexyl)-N′-(3-fluorobenzyl)urea]
> 200	CN(C)c1nc(N[C@H]2CC[C@@H](NC(=S)Nc3ccccc3Cl)CC2)nc2ccccc12 [compound 202]
> 200	COCCOC(=O)N[C@H]1CC[C@@H](Nc2nc(N(C)C)c3ccccc3n2)CC1 [compound 852]

SMILES	IC50 [nM]
CN(C)c1nc(N[C@H]2CC[C@@H](CNC(=O)Oc3ccc4ccccc4c3)CC2)nc2ccccc12 [compound 876]	> 200

same assay, conditions: class by percent of control at 10^−7 M or by IC50; read-out: class

IC50 [nM]	SMILES
> 200	CN(C)c1nc(N[C@H]2CC[C@@H](CNC(=O)c3ccc(C(F)(F)F)c(F)c3)C2)nc2ccccc12 [Example 1124, N-[((1R,3S)-3-{[4-(dimethylamino)quinazolin-2-yl]amino}-cyclopentyl)methyl]-3-fluoro-4-(trifluoromethyl)benzamide]
< 50	CN(C)c1nc(N[C@H]2CC[C@@H](C(=O)NCc3ccccc3F)CC2)nc2ccccc12 [Example 1151, cis-4-{[4-(dimethylamino)quinazolin-2-yl]amino}-N-(2-fluorobenzyl)cyclohexanecarboxamide]
< 50	CC(NC(=O)[C@H]1CC[C@@H](Nc2nc(N(C)C)c3ccccc3n2)CC1)c1ccc(Br)cc1 (relative stereo) [Example 1140, cis-N-[1-(4-bromophenyl)ethyl]-4-{[4-(dimethylamino)quinazolin-2-yl]amino}cyclohexanecarboxamide]
> 200	CN(C)c1nc(N[C@H]2CC[C@@H](NC(=O)c3ccc(Oc4ccccc4Br)nc3)CC2)nc2ccccc12 [Example 1052, 6-(2-bromophenoxy)-N-(cis-4-{[4-(dimethylamino)quinazolin-2-yl]amino}cyclohexyl)nicotinamide]
< 50	CN(C)c1nc(N[C@H]2CC[C@@H](C(=O)NCc3ccc(C(F)(F)F)cc3F)CC2)nc2ccccc12 [Example 1175, cis-4-{[4-(dimethylamino)quinazolin-2-yl]amino}-N-[2-fluoro-4-(trifluoromethyl)benzyl]cyclohexanecarboxamide]
< 50	CN(C)c1nc(N[C@H]2CC[C@@H](NC(=O)CNc3ccc(F)cc3)CC2)nc2ccccc12 [Example 1091, N-(cis-4-{[4-(dimethylamino)quinazolin-2-yl]amino}cyclohexyl)-N2-(4-fluorophenyl)glycinamide]
50 to 200	Cc1cc(Cl)cc(Cl)c1CNC(=O)[C@H]1CC[C@@H](Nc2nc(N(C)C)c3ccccc3n2)CC1 [Example 1187, cis-N-(2,4-dichloro-6-methylbenzyl)-4-{[4-(dimethylamino)quinazolin-2-yl]amino}cyclohexanecarboxamide]
